Biological target: T1, BsIspD (Bacillus subtilis, UniProt Q06755)
T1 construct: gene ispD; full length (699 bp gene, 232 residues built); pGEX-6P-1, expressed in E. coli, GST tag cut with PreScission protease; homodimer
Test: X-ray crystal structure of the complex, […] Å
Type: binding
Conditions: co-crystallised with 10 mM CTP and 10 mM MgCl2; active site, one CTP and one Mg2+ in molecule D only

T1 sequence (Q06755 whole entry): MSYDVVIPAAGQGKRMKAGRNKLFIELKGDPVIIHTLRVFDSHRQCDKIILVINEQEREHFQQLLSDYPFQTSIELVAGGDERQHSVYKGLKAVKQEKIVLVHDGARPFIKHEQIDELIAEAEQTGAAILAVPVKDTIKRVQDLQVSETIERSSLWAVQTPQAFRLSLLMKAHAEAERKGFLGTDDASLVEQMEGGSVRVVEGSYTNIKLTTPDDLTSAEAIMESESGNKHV

## Nc1ccn([C@@H]2O[C@H](COP(=O)(O)OP(=O)(O)OP(=O)(O)O)[C@@H](O)[C@H]2O)c(=O)n1 [CTP]
  X-ray crystal structure of the complex, 1.90 Å: One CTP molecule and one magnesium ion were observed binding to the molecule D

From PMC5099578, “A structural and functional study on the 2-C-methyl-D-erythritol-4-phosphate cytidyltransferase (IspD) from Bacillus subtilis” (Scientific Reports, 2016)
